Assay results reported in patent US8183383B2, “Protein tyrosine phosphatase 1B inhibitor, preparation methods and uses thereof” (Shanghai Institute of Materia Medica, Chinese Academy of …, priority 2007, dated 2012).

target: T1, hPTP1B (Homo sapiens, UniProt P18031); test: PTP1B inhibition test (pNPP hydrolysis, absorption at 410 nm); assay type: biochemical; conditions: recombinant hPTP1B catalytic domain 40 nM, 2 mM pNPP, pH 7.0, 2% DMSO; read-out: IC50(μM), inhibitory activity of the test compounds against PTP1B
T1 construct: The catalytic structural domain of hPTP1B was expressed in E-coli system by a molecular biology protocol; made in house; host or cells: E. coli
T1 sequence (P18031 3-277 limits assumed): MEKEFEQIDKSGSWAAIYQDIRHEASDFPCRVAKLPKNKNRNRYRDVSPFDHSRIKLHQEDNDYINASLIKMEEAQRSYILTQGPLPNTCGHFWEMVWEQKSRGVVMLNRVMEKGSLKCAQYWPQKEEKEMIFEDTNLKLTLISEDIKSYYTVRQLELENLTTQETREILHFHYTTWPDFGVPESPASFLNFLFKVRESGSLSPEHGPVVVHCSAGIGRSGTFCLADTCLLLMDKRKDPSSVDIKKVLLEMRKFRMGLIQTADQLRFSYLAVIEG
Description: 1) Test principle: The catalytic structural domain of hPTP1B was expressed in E-coli system by a molecular biology protocol. The purified hPTP1B recombinant protein can hydrolyze the phosphoester linkage of the pNPP substrate to obtain a product which has a strong light absorption at 410 nm. Therefore, the variation of the enzyme activity and the inhibitory activity of a compound against the enzyme can be observed by directly monitoring the changes in the light absorption at 410 nm. A typical activity assay system is as follows: 50 mM Mops, PH 7.0, 1 mM EDTA, 2 mM DTT, 2 mM PNPP, 2% DMSO, 40 nM hPTP1B.
2) Measuring Index: The light absorption was dynamically measured at 410 nm for 3 min. The slope of the first-order reaction of the dynamic curve thereof was considered as the activity index of the enzymes.
3) Measurement: • 1. 1 mg sample was dissolved in 200 μL DMSO. To each wall of the A2-H11 of a 96-wells polypropylene plate, 20 μL of the solution was added, followed by addition of 80 μL DMSO. The plate was used as mother plate. • 2. To each corresponding wall of a 96-wells polypropylene plate, 2 μL of sample was added with a Biomek 2000 automation workstation. The plate was used as daughter plate for screening. • 3. To each wall of A1-D1 and E12-H12, 2 μL, DMSO was added. These walls were regarded as 100% of enzyme activity for control. • 4. To each wall of A12-D12 and E1-H1, 2 μL positive control with different concentrations (four concentrations prepared by double-fold dilution from […]) was added respectively. • 5. To each wall of A1-H12, 88 μL Assay mix was added respectively. • 6. To each wall of A1-H12, 10 μL hPTP1B was added respectively. • 7. The light absorption was measured at 410 nm for 3 min on a SpectraMAX 340 spectrometer. • 8. Exporting the output into a TXT file, and opening the file with Excel. The average of the Vmax values of A1-D1 and E12-H12 was considered as 100% of enzyme activity.
4) Results: The screening results were the % inhibitory rate against the enzyme when the compound concentration was 20 μg/mL. 1050 value was calculated according to a conventional screening when the inhibitory rate exceeded 50%. The […] value of the positive control, 4-[4-(4-oxalyl-phenoxymethyl)-benzyloxy]-phenyl-oxo-acetic acid, is 5.4 μM [Christopher T. Seto, et al. J. Med. Chem., 2002, 45, 3946-3952].

IC50 [µM] | Compound
8.69 | CCOC(=O)/C(C)=C/C(C)=C\c1csc([C@H](Cc2ccc(OCc3ccccc3)cc2)NC(=O)C2CCCCC2)n1 [WY572-3]
> 40 | CCOC(=O)/C(C)=C\C(C)=C\c1csc([C@H](Cc2ccc(OCCO)cc2)NC(=O)C2CCCCC2)n1 [WY526h]
6.47 | CCOC(=O)/C(C)=C\C(C)=C\c1csc([C@H](Cc2ccc(OCc3ccccc3)cc2)NC(=O)N2CCC(C(=O)O)CC2)n1 [WY617a]
> 35 | CCOC(=O)/C(C)=C\C(C)=C\c1csc([C@H](Cc2ccc(OCc3ccc4ccccc4c3)cc2)NC(=O)C2CCCCC2)n1 [WY622h]
> 35 | CCOC(=O)/C(C)=C\C(C)=C\c1csc([C@H](Cc2ccc(OCc3ccccc3)cc2)NC(=O)C2CCN(C)CC2)n1 [WY587s]
25.6 | CCOC(=O)/C(C)=C\C(C)=C\c1csc([C@H](Cc2ccc(OCc3ccc(F)cc3)cc2)NC(=O)C2CCCCC2)n1 [WY590h]
31.8 | CCOC(=O)/C(C)=C\C(C)=C\c1csc([C@H](Cc2ccc(OCc3ccccc3F)cc2)NC(=O)C2CCCCC2)n1 [WY592h2]
> 35 | COC(=O)/C(C)=C\C(C)=C\c1csc([C@H](Cc2ccc(OCc3ccccc3)cc2)NC(=O)C(O)c2ccccc2)n1 (stereo partly shown) [WY584]
> 35 | CCOC(=O)/C(C)=C\C(C)=C\c1csc([C@H](Cc2ccc(OCc3ccccc3)cc2)NC(=O)c2ccc(F)cc2)n1 [WY584s]
> 40 | CCOC(=O)/C(C)=C\C(C)=C\c1csc([C@H](Cc2ccc(OCc3ccccc3)cc2)NC(=O)C2CCCO2)n1 (stereo partly shown) [WY560s]
10.2 | CCOC(=O)/C(C)=C\C(C)=C\c1csc([C@H](Cc2ccc(OCc3ccccc3)cc2)NC(=O)C(=O)COC)n1 [WY562]
25.6 | CCOC(=O)/C(C)=C\C(C)=C\c1csc([C@H](Cc2ccc(OCc3ccc(OC)cc3)cc2)NC(=O)C2CCCCC2)n1 [WY602h]
10.5 | CCOC(=O)/C(C)=C\C(C)=C\c1nc([C@@H](Cc2ccc(OCc3ccccc3)cc2)NC(=O)C2CCCCC2)sc1CC(C)C [WY628z2]
> 40 | CCOC(=O)/C(C)=C\C(C)=C\c1csc([C@H](Cc2ccc(OCC(=O)O)cc2)NC(=O)C2CCCCC2)n1 [WY540a]
9.42 | CCOC(=O)/C(C)=C\C(C)=C\c1csc([C@H](Cc2ccc(OCc3ccccc3)cc2)NC(=O)COCc2ccccc2)n1 [WY610s]
23.1 | CCOC(=O)/C(C)=C\C(C)=C\c1csc([C@H](Cc2ccc(OCc3ccccc3)cc2)NC(=O)Cc2ccccc2)n1 [WY580s]
8.58 | CCCCC(=O)C(=O)N[C@@H](Cc1ccc(OCc2ccccc2)cc1)c1nc(/C=C(C)/C=C(/C)C(=O)OCC)cs1 [WY574]
9.98 | CCOC(=O)/C(C)=C\C(C)=C\c1csc([C@H](Cc2ccc(OCc3ccccc3)cc2)NC(=O)C(OCc2ccccc2)C(C)C)n1 (stereo partly shown) [WY652s]
6.92 | CCOC(=O)/C(C)=C\C(C)=C\c1csc([C@H](Cc2ccc(OCc3ccccc3)cc2)NC(=O)C(=O)c2ccccc2)n1 [WY594]
15.2 | CCOC(=O)/C(C)=C\C(C)=C\c1csc([C@H](Cc2ccc(OCc3ccccc3)cc2)NC(=O)c2ccccc2)n1 [WY566s]
6.29 | CCOC(=O)/C(C)=C\C(C)=C\c1csc([C@H](Cc2ccc(OCc3ccccc3)cc2)NC(=O)C2CCCCC2)n1 [WY572s]
22.1 | CCCCOc1ccc(C[C@H](NC(=O)C2CCCCC2)c2nc(/C=C(C)/C=C(/C)C(=O)OCC)cs2)cc1 [WY538h]
10.4 | CCOC(=O)/C(C)=C\C(C)=C\c1csc([C@H](Cc2ccc(OCc3ccccc3)cc2)NC(=O)C(=O)C2CCCO2)n1 (stereo partly shown) [WY588]
4.86 | CCOC(=O)/C(C)=C\C(C)=C\c1nc([C@H](Cc2ccc(OCc3ccccc3)cc2)NC(=O)C2CCCCC2)sc1C [WY586z]
> 35 | CCOC(=O)/C(C)=C\C(C)=C\c1csc([C@H](Cc2ccc(OC(C)C(=O)OCC)cc2)NC(=O)C2CCCCC2)n1 (stereo partly shown) [WY582h]
9.32 | C/C(=C/C(C)=C/c1csc([C@H](Cc2ccc(OCc3ccccc3)cc2)NC(=O)CC2CCCCC2)n1)C(=O)O [WY558a]

IC50 [µM] | Compound
8.14 | CCOC(=O)/C(C)=C\C(C)=C\c1csc([C@H](Cc2ccc(OCc3ccccc3)cc2)NC(=O)C(=O)C2CC2)n1 [WY558]
> 40 | C=CCc1cc(C[C@H](NC(=O)C2CCCCC2)c2nc(/C=C(C)/C=C(/C)C(=O)OCC)cs2)ccc1O [WY522b]
> 35 | CCOC(=O)/C(C)=C\C(C)=C\c1csc([C@H](Cc2ccc(OCc3ccccc3)cc2)NC(=O)C2CC2)n1 [WY530s]
10.5 | CCOC(=O)/C(C)=C\C(C)=C\c1csc([C@H](Cc2ccc(OCc3ccccc3)cc2)NC(=O)N2CCC(C(=O)OCC)CC2)n1 [WY645s]
> 40 | CCOC(=O)/C(C)=C\C(C)=C\c1csc([C@H](Cc2ccc(-c3ccccc3)cc2)NC(=O)C2CCCCC2)n1 [WY542h]
5.13 | CCOC(=O)/C(C)=C\C(C)=C\c1csc([C@H](Cc2ccc(OCc3ccccc3)cc2)NC(=O)C(=O)c2ccc(F)cc2)n1 [WY612]
4.1 | CCOC(=O)/C(C)=C\C(C)=C\c1csc([C@H](Cc2ccc(OCc3ccccc3)cc2)NC(=O)C(=O)COCc2ccccc2)n1 [WY638]
> 35 | CCOC(=O)/C(C)=C\C(C)=C\c1csc([C@H](Cc2ccc(OCc3ccccn3)cc2)NC(=O)C2CCCCC2)n1 [WY573h]
> 35 | CCOC(=O)/C(C)=C\C(C)=C\c1csc([C@H](Cc2ccc(OCCc3ccccc3)cc2)NC(=O)C2CCCCC2)n1 [WY586h]
11.3 | CC(=C\c1csc([C@H](Cc2ccc(OCc3ccccc3)cc2)NC(=O)C2CCCCC2)n1)/C=C(\C)C(=O)O [WY544-2]
> 40 | CCOC(=O)/C(C)=C\C(C)=C\c1csc([C@H](Cc2ccc(OCc3ccncc3)cc2)NC(=O)C2CCCCC2)n1 [WY573h4]
34.2 | CCOC(=O)/C(C)=C\C(C)=C\c1csc([C@H](Cc2ccccc2)NC(=O)C2CCCCC2)n1 [WY466h]
10.9 | CCOC(=O)/C(C)=C\C(C)=C\c1csc([C@H](Cc2ccc(OCc3ccccc3)cc2)NC(=O)C(=O)c2cccs2)n1 [WY600t]
> 40 | CCOC(=O)/C(C)=C\C(C)=C\c1csc([C@H](Cc2ccc(OCc3ccccc3)cc2)NC(=O)C2CCC2)n1 [WY544s]
6.68 | CCOC(=O)/C(C)=C\C(C)=C\c1nc([C@H](Cc2ccc(OCc3ccccc3)cc2)NC(=O)C2CCCCC2)sc1CC(C)C [WY628z]
34.4 | C=CCOc1ccc(C[C@H](NC(=O)C2CCCCC2)c2nc(/C=C(C)/C=C(/C)C(=O)OCC)cs2)cc1 [WY522h]
> 35 | CCOC(=O)/C(C)=C\C(C)=C\c1csc([C@H](Cc2ccc(OCc3ccccc3)cc2)NC(=O)C(=O)CO)n1 [WY548]
> 35 | CCOC(=O)/C(C)=C\C(C)=C\c1csc([C@H](Cc2ccc(OCc3ccccc3)cc2)NC(=O)C(=O)c2ccc[nH]2)n1 [WY583]
44.8 | CCOC(=O)/C(C)=C\C(C)=C\c1csc([C@H](Cc2ccc(OCc3ccccc3)cc2)NC(=O)c2ccc(OC)cc2)n1 [WY596s]
11 | CCOC(=O)/C(C)=C\C(C)=C\c1csc([C@H](Cc2ccc(OCc3ccccc3)cc2)NC(=O)C(=O)C2CCCC2)n1 [WY586]
> 40 | CCOC(=O)/C(C)=C\C(C)=C\c1csc([C@H](Cc2ccc(OCc3ccccc3)cc2)NC(=O)COC(C)=O)n1 [WY562s]
27.8 | CCOC(=O)/C(C)=C\C(C)=C\c1csc([C@H](Cc2ccc(O)cc2)NC(=O)C2CCCCC2)n1 [WY482h]
8.52 | CCOC(=O)/C(C)=C\C(C)=C\c1csc([C@H](Cc2ccc(OCc3ccccc3)cc2)NC(=O)C(=O)C2CCC2)n1 [WY572]
> 35 | CCOC(=O)/C(C)=C\C(C)=C\c1csc([C@H](Cc2ccc(OCc3ccccc3)cc2)NC(=O)C(F)(F)F)n1 [WY558f]
30.1 | CCOC(=O)/C(C)=C\C(C)=C\c1csc([C@H](Cc2ccc(OC)cc2)NC(=O)C2CCCCC2)n1 [WY496h]
3.3 | CCOC(=O)/C(C)=C\C(C)=C\c1nc([C@H](Cc2ccc(OCc3ccccc3)cc2)NC(=O)C2CCCCC2)sc1-c1ccccc1 [WY648z]
